Results: ChEMBL document CHEMBL5532661, “Discovery of a Novel Glucagon-like Peptide-1 (GLP-1) Analogue from Bullfrog and Investigation of Its Potential for Designing GLP-1-Based Multiagonists” (J Med Chem, 2024)
Numbered stars: 1 amine (or outer) side, 2 acyl side, 3 side chain; on linkers, the order of the positions; unused ones are H or OH. Side chains are listed from the residue outwards. Peptide text beside a SMILES is read from it. * marks the point of attachment. C18 diacid = O=C(O)CCCCCCCCCCCCCCCCC(=O)*; γGlu = O=C(O)[C@H](CCC(=O)[*:2])N[*:1]; Palmitoyl = CCCCCCCCCCCCCCCC(=O)*; AEEA = NCCOCCOCC(=O)O

How the values were obtained:
Assay type in all cases: functional, cell-based
[1] = target: T1, Glucagon-like peptide 1 receptor (Homo sapiens, UniProt P43220); assay: Agonist activity at human GLP-1 receptor expressed in HEK293 cells assessed as cAMP level measured after 60 mins by HTRF based assay
[2] = target: T1, Glucagon-like peptide 1 receptor; assay: Agonist activity at human GLP-1 receptor expressed in HEK293 cells assessed as cAMP level by measuring relative percent (GLP-1 EC50/compound EC50) measured after 60 mins by HTRF based assay relative to GLP-1; details: filed as agonist
Glucagon receptor [3] = target: T2, Glucagon receptor (Homo sapiens, UniProt P47871); assay: Agonist activity at human GCGR expressed in HEK293 cells assessed as cAMP level measured after 60 mins by HTRF based assay
Glucagon receptor [4] = target: T2, Glucagon receptor; assay: Agonist activity at human GCGR expressed in HEK293 cells assessed as cAMP level by measuring relative percent (glucagon EC50/compound EC50) measured after 60 mins by HTRF based assay relative to glucagon

T2 sequence (P47871 whole entry): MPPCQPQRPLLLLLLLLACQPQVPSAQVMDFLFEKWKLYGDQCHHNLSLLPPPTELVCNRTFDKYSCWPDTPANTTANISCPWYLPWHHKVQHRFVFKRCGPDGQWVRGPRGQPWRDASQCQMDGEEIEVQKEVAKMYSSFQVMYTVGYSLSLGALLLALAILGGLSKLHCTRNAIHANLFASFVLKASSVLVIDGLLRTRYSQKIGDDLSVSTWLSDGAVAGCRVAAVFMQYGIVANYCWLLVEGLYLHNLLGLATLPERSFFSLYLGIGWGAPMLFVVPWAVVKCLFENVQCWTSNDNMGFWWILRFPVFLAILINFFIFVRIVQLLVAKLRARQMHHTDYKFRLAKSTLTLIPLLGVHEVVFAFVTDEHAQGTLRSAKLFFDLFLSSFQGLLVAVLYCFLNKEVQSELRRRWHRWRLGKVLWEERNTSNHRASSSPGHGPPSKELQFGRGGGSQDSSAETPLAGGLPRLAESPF
T1 sequence (P43220 whole entry): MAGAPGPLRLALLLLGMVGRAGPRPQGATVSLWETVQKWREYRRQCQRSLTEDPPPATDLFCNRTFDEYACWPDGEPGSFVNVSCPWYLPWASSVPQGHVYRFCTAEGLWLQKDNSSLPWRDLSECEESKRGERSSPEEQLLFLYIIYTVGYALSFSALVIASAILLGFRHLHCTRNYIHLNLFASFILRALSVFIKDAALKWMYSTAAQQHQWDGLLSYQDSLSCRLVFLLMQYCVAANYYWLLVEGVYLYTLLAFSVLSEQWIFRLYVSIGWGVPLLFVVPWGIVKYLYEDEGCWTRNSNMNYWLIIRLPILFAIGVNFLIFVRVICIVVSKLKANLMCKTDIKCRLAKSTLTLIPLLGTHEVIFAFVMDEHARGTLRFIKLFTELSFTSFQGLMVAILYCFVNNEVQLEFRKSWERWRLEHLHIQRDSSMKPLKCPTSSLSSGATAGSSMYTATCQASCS

Compound	EC50 [1]	also measured
CSCC[C@H](NC(=O)[C@H](CC(=O)O)NC(=O)[C@H](CO)NC(=O)[C@@H](NC(=O)[C@H](Cc1ccccc1)NC(=O)[C@@H](NC(=O)CNC(=O)[C@H](CCC(N)=O)NC(=O)[C@H](CO)NC(=O)[C@@H](N)Cc1c[nH]cn1)[C@@H](C)O)[C@@H](C)O)C(=O)N[C@@H](CO)C(=O)N[C@@H](CCCCNC(=O)COCCOCCNC(=O)COCCOCCNC(=O)CC[C@H](NC(=O)CCCCCCCCCCCCCCCCC(=O)O)C(=O)O)C(=O)N[C@@H](Cc1ccc(O)cc1)C(=O)N[C@@H](CC(C)C)C(=O)N[C@@H](CC(=O)O)C(=O)N[C@@H](CO)C(=O)N[C@@H](CCCNC(=N)N)C(=O)N[C@@H](CCCNC(=N)N)C(=O)N[C@@H](C)C(=O)N[C@@H](CCC(N)=O)C(=O)N[C@@H](CC(=O)O)C(=O)N[C@@H](Cc1ccccc1)C(=O)N[C@H](C(=O)N[C@@H](CC(=O)O)C(=O)N[C@@H](Cc1c[nH]c2ccccc12)C(=O)N[C@@H](CC(C)C)C(=O)N[C@@H](CCCCN)C(=O)N[C@@H](CC(N)=O)C(=O)NCC(=O)NCC(=O)N1CCC[C@H]1C(=O)N[C@@H](CO)C(=O)N[C@@H](CO)C(=O)NCC(=O)N[C@@H](C)C(=O)N1CCC[C@H]1C(=O)N1CCC[C@H]1C(=O)N1CCC[C@H]1C(=O)N[C@@H](CO)C(N)=O)C(C)C (H-HSQGTFTSDMSK([AEEA-AEEA-γGlu-C18 diacid])YLDSRRAQDFVDWLKNGGPSSGAPPPS-NH2)	0.052 nM	Activity [2]: 102%; EC50 (Glucagon receptor [3]): 1.4 nM; Activity (Glucagon receptor [4]): 7%
CCCCCCCCCCCCCCCC(=O)N[C@@H](CCC(=O)NCCCC[C@H](NC(=O)[C@H](CO)NC(=O)[C@H](CCSC)NC(=O)[C@H](CC(=O)O)NC(=O)[C@H](CO)NC(=O)[C@@H](NC(=O)[C@H](Cc1ccccc1)NC(=O)[C@@H](NC(=O)CNC(=O)[C@H](CCC(N)=O)NC(=O)[C@H](CO)NC(=O)[C@@H](N)Cc1c[nH]cn1)[C@@H](C)O)[C@@H](C)O)C(=O)N[C@@H](Cc1ccc(O)cc1)C(=O)N[C@@H](CC(C)C)C(=O)N[C@@H](CC(=O)O)C(=O)N[C@@H](CO)C(=O)N[C@@H](CCCNC(=N)N)C(=O)N[C@@H](CCCNC(=N)N)C(=O)N[C@@H](C)C(=O)N[C@@H](CCC(N)=O)C(=O)N[C@@H](CC(=O)O)C(=O)N[C@@H](Cc1ccccc1)C(=O)N[C@H](C(=O)N[C@@H](CC(=O)O)C(=O)N[C@@H](Cc1c[nH]c2ccccc12)C(=O)N[C@@H](CC(C)C)C(=O)N[C@@H](CCCCN)C(=O)N[C@@H](CC(N)=O)C(=O)NCC(=O)NCC(=O)N1CCC[C@H]1C(=O)N[C@@H](CO)C(=O)N[C@@H](CO)C(=O)NCC(=O)N[C@@H](C)C(=O)N1CCC[C@H]1C(=O)N1CCC[C@H]1C(=O)N1CCC[C@H]1C(=O)N[C@@H](CO)C(N)=O)C(C)C)C(=O)O (H-HSQGTFTSDMSK([γGlu-Palmitoyl])YLDSRRAQDFVDWLKNGGPSSGAPPPS-NH2)	0.046 nM	Activity [2]: 115%; EC50 (Glucagon receptor [3]): 0.19 nM; Activity (Glucagon receptor [4]; filed as agonist): 48%
CSCC[C@H](NC(=O)[C@H](CC(=O)O)NC(=O)[C@H](CO)NC(=O)[C@@H](NC(=O)[C@H](Cc1ccccc1)NC(=O)[C@@H](NC(=O)CNC(=O)[C@H](CCC(N)=O)NC(=O)[C@H](CO)NC(=O)[C@@H](N)Cc1c[nH]cn1)[C@@H](C)O)[C@@H](C)O)C(=O)N[C@@H](CO)C(=O)N[C@@H](CCCCN)C(=O)N[C@@H](Cc1ccc(O)cc1)C(=O)N[C@@H](CCCCNC(=O)COCCOCCNC(=O)COCCOCCNC(=O)CC[C@H](NC(=O)CCCCCCCCCCCCCCCCC(=O)O)C(=O)O)C(=O)N[C@@H](CC(=O)O)C(=O)N[C@@H](CO)C(=O)N[C@@H](CCCNC(=N)N)C(=O)N[C@@H](CCCNC(=N)N)C(=O)N[C@@H](C)C(=O)N[C@@H](CCC(N)=O)C(=O)N[C@@H](CC(=O)O)C(=O)N[C@@H](Cc1ccccc1)C(=O)N[C@H](C(=O)N[C@@H](CC(=O)O)C(=O)N[C@@H](Cc1c[nH]c2ccccc12)C(=O)N[C@@H](CC(C)C)C(=O)N[C@@H](CCCCN)C(=O)N[C@@H](CC(N)=O)C(=O)NCC(=O)NCC(=O)N1CCC[C@H]1C(=O)N[C@@H](CO)C(=O)N[C@@H](CO)C(=O)NCC(=O)N[C@@H](C)C(=O)N1CCC[C@H]1C(=O)N1CCC[C@H]1C(=O)N1CCC[C@H]1C(=O)N[C@@H](CO)C(N)=O)C(C)C (H-HSQGTFTSDMSKYK([AEEA-AEEA-γGlu-C18 diacid])DSRRAQDFVDWLKNGGPSSGAPPPS-NH2)	0.049 nM	Activity [2]: 108%; EC50 (Glucagon receptor [3]): 1.2 nM; Activity (Glucagon receptor [4]): 8%
CSCC[C@H](NC(=O)[C@H](CC(=O)O)NC(=O)[C@H](CO)NC(=O)[C@@H](NC(=O)[C@H](Cc1ccccc1)NC(=O)[C@@H](NC(=O)CNC(=O)[C@H](CCC(N)=O)NC(=O)[C@H](CO)NC(=O)[C@@H](N)Cc1c[nH]cn1)[C@@H](C)O)[C@@H](C)O)C(=O)N[C@@H](CO)C(=O)N[C@@H](CCCCN)C(=O)N[C@@H](Cc1ccc(O)cc1)C(=O)N[C@@H](CC(C)C)C(=O)N[C@@H](CC(=O)O)C(=O)N[C@@H](CO)C(=O)N[C@@H](CCCNC(=N)N)C(=O)N[C@@H](CCCNC(=N)N)C(=O)N[C@@H](C)C(=O)N[C@@H](CCC(N)=O)C(=O)N[C@@H](CC(=O)O)C(=O)N[C@@H](Cc1ccccc1)C(=O)N[C@H](C(=O)N[C@@H](CC(=O)O)C(=O)N[C@@H](Cc1c[nH]c2ccccc12)C(=O)N[C@@H](CC(C)C)C(=O)N[C@@H](CCCCN)C(=O)N[C@@H](CC(N)=O)C(=O)NCC(=O)NCC(=O)N1CCC[C@H]1C(=O)N[C@@H](CO)C(=O)N[C@@H](CO)C(=O)NCC(=O)N[C@@H](C)C(=O)N1CCC[C@H]1C(=O)N1CCC[C@H]1C(=O)N1CCC[C@H]1C(=O)N[C@@H](CO)C(=O)N[C@@H](CCCCNC(=O)COCCOCCNC(=O)COCCOCCNC(=O)CC[C@H](NC(=O)CCCCCCCCCCCCCCCCC(=O)O)C(=O)O)C(N)=O)C(C)C (H-HSQGTFTSDMSKYLDSRRAQDFVDWLKNGGPSSGAPPPSK([AEEA-AEEA-γGlu-C18 diacid])-NH2)	0.034 nM	Activity [2]: 156%; EC50 (Glucagon receptor [3]): 3.1 nM; Activity (Glucagon receptor [4]): 3%
H-HADGIYTSDVASLTDYLKSKRFVESLSNYNRKQNDRRM-NH2	0.19 nM	
H-HADGTFTNDMTSYLDAKAARDFVSWLARSDKS-NH2	0.23 nM	
H-HADGTFTSDMSAYLEEKAAKEFVDWLIKGRPK-NH2	0.12 nM	
H-HADGTFTSDMSSALEEKAAKEFVDWLIKGRPK-NH2	0.56 nM	
H-HADGTFTSDMSSYLAEKAAKEFVDWLIKGRPK-NH2	0.61 nM	
H-HADGTFTSDMSSYLEEKAAKEAVDWLIKGRPK-NH2	0.66 nM	
H-HADGTFTSDMSSYLEEKAAKEFVDWAIKGRPK-NH2	0.53 nM	
H-HADGTFTSDMSSYLEEKAAKEFVDWLIAGRPK-NH2	0.12 nM	
H-HADGTFTSDMSSYLEEKAAKEFVDWLIKARPK-NH2	0.63 nM	
H-HADGTFTSDMSSYLEEKRAKEFVDWLIKGRPK-NH2	0.72 nM	
H-HADGTYTSDVSSYLQDQAAKKFVTWLKQGQDRRE-NH2	0.35 nM	
H-HAEGTYTDDVSTYLQDQAAKDFVSWLKSGRA-NH2	0.31 nM	

Continued by falling EC50 [1], values first:

EC50 [1]	Compound	also measured
0.11 nM	H-HADGTFTSDMSSYLEEKAAKAFVDWLIKGRPK-NH2	
0.099 nM	H-HADGTFTSDMSSYLEEKAAKEFVDWLIKGRAK-NH2	
0.097 nM	H-HADGTFTSDMSSYLEEKAAKEFVDWLIKGAPK-NH2	
0.096 nM	H-HADGTFTSDMSSYLEEKAAKEFVAWLIKGRPK-NH2	
0.094 nM	H-HADGTFTSDMSSYLEEKAAKEFADWLIKGRPK-NH2	
0.092 nM	H-HADGTFTSDMSSYLEEKAAKEFVDALIKGRPK-NH2	
0.051 nM	H-HADGTFTSDMSSYLEEKAAKEFVDWLIKGRPK-NH2	
0.018 nM	H-HADGTFTSDMSSYLEEKAAKEFVDWLIKGRPA-NH2	
